Reference: patent publication US20240309018A1, “THIAZOLE-LACTAM-SPIROHETEROCYCLIC COMPOUNDS AND APPLICATIONS THEREOF” (D3 BIO (WUXI) CO., LTD, priority 2021, published 2024)
pIC50: −log10 of the molar value. “Also recorded” adds a separate entry of the source.

Experiments:
hERG potassium channel = hERG potassium channel (Homo sapiens (Human), UniProt Q12809); assay: hERG assay (automated patch-clamp, CHO-hERG cells); format: cell-based; settings: Qpatch, highest assayed concentration 40 μM
Description: A fully automated patch-clamp method was used to assay the effect of the compound on hERG potassium channel (human Ether-a-go-go Related Gene potassium channel) current.
CHO-hERG cells were cultured in a 175 cm^2 culture flask. When cells grew to a density of 60˜80%, the culture medium was removed. Cells were washed once with 7 mL of PBS (Phosphate Buffered Saline), and then 3 mL of Detachin was added for digestion. After the digestion was completed, 7 mL of culture medium was added for neutralization, and then the mixture was centrifuged. The supernatant was aspirated, and then 5 mL of culture medium was added to resuspend the cells and ensure that the cell density was 2˜5×10^6/mL.
Extracellular solution formulation (mM): 140 NaCl, 5 KCl, 1 CaCl2), 1.25 MgCl2, 10 HEPES and 10 Glucose: the formulation was adjusted to pH of 7.4 with NaOH. […]
The single-cell high-impedance sealing and whole-cell pattern formation processes were all automatically performed by a Qpatch instrument. […] This voltage stimulation was applied every 15 seconds, and recorded for 2 minutes. The extracellular solution was then given, and recorded for 5 minutes. […]
Assay data were analyzed by GraphPad Prism 5.0 software. […]
The inhibitory effect of Cisapride with multiple concentrations on the hERG channel was measured as a positive control.

[1] = Body weight and tolerance in A375 model animals; format: in vivo; settings: 12.5, 25 and 50 mg/kg PO BID, to the 21st day
Description: • 3) Daily observation of assay animals: The development of this assay protocol and any modifications were evaluated and approved by the Institutional Animal Care and Use Committee (IACUC). The use and welfare of assay animals were carried out in accordance with the regulations of the Association for Assessment and Accreditation of Laboratory Animal Care (AAALAC). Animals were monitored daily for health and death. […] Animal deaths and side effects in each group were recorded based on the number of animals in each group. • 4) Formulation of assay compound • a) Vehicle group: 5% DMSO+95% (20% HP-β-CD). • b) Assay compound group: A quantitative amount of the assay compound was weighed in a formulation bottle. […] A corresponding volume of 20% HP-β-CD was added and then the mixture was vortexed to obtain a homogeneous suspension. • 5) Tumor measurement and assay indicator: • a) Tumor diameter was measured twice a week with a vernier caliper. The calculation formula of tumor volume was: TV=1/2×a×b^2, wherein a and b represent the long and short diameters of tumor, respectively: • b) The tumor-inhibitory efficacy of the compound was evaluated by TGI (%). […]

HT29 tumor cells = assay: In vitro cell proliferation inhibition (CellTiterGlo); format: cell-based; settings: Homo sapiens, HT-29
Description: The ability of the compound to inhibit the proliferation of HT29 tumor cells was measured.
The assay compound was dissolved in 100% DMSO to prepare 10 mM stock solution.
• 1) UV light of a biological safety cabin was turned on, and 30 minutes were counted down; • 2) In a 37° C. water bath, RPMI1640 medium and trypsin were preheated; • 3) After completion of the UV irradiation, the biological safety cabin was opened. The preheated medium, trypsin and phosphate buffered saline (PBS), etc. were wiped with alcohol and placed in the biological safety cabin; • 4) HT29 cells were removed from the incubator, and the old medium was removed in biological safety cabin. 10 ml of PBS was added. The mixture was shaken gently, and then PBS was removed; • 5) 1.5 ml of preheated 0.25% trypsin was added. […] The signal value was then detected. The data were analyzed using XL-Fit, and the IC50 of each compound was calculated.

hERG potassium channel, sequence (Q12809 whole entry): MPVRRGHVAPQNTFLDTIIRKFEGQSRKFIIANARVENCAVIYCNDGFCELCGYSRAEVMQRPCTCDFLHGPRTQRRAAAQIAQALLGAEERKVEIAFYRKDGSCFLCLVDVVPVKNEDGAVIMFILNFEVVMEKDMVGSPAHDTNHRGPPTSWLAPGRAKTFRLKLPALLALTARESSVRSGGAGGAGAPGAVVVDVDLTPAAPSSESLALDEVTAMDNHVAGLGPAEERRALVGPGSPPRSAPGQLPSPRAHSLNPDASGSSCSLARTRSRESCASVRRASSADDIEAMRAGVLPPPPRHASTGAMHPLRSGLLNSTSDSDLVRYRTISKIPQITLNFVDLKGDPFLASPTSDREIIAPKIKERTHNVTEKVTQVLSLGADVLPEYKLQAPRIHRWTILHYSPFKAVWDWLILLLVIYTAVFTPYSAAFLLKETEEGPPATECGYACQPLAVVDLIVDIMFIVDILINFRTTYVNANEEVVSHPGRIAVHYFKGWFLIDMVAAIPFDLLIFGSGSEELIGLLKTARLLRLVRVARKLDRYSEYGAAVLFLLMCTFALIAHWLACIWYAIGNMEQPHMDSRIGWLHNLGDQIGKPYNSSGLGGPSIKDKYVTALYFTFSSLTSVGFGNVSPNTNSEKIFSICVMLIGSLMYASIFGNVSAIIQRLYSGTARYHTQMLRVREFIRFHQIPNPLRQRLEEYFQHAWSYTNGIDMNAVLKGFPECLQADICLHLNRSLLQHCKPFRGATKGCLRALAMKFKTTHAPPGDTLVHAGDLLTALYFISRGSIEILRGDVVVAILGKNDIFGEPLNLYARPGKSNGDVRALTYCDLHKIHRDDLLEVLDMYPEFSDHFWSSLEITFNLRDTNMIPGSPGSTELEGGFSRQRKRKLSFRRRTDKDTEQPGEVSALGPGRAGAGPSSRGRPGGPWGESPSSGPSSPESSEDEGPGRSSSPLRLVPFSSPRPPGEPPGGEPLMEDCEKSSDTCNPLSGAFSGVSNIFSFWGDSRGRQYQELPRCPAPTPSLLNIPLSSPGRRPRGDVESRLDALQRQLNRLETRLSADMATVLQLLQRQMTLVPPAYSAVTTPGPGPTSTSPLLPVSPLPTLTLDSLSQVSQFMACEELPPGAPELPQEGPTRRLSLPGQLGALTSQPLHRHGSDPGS

Cc1cccc(CN2C(=O)c3nc(-c4nc(Nc5ccnn5C)ncc4C)sc3C23COC3)n1 [WX001]
pIC50 (hERG potassium channel): < 4.40 | body weight of animals [1]: did not decrease significantly; also recorded: not observed to decrease significantly | tolerance [1]: good | pIC50 (HT29 tumor cells): 7.18
